In patent US20140309221A1, “METHOD OF INHIBITING HAMARTOMA TUMOR CELLS” (DANA-FARBER CANCER INSTITUTE, INC., priority 2011, published 2014):
Entries after “also recorded” stand apart in the source; their conditions may differ.

Legend:
[1] = tested on: PHTS symptoms in K14-cre-Pten f/f mice; assay: Early administration: prevention of PHTS symptom development in K14-cre-Pten f/f mice; type: in vivo; details: 25 mg/kg daily by oral gavage beginning at 3 weeks of age
Method: (§1) 4-(Trifluoromethyl)-5-(2,6-dimorpholinopyrimidin-4-yl)pyridin-2-amine powder was dissolved in 1 volume of NMP (1-methyl-2-pyrrolidone). After dissolution (if needed, in warm water), add 9 volumes of PEG300. The final ratio is: NMP 10%/PEG300 90%.
Pten f/f mice (Lesche, R., et al., Cre/loxP-mediated inactivation of the murine Pten tumor suppressor gene. Genesis, 2002. 32(2): 148-9) were crossed with K14-cre mice (Jonkers, J., et al., Synergistic tumor suppressor activity of BRCA2 and p53 in a conditional mouse model for breast cancer. Nat Genet, 2001. 29(4): 418-25) to generate K14-Cre Pten f/f mice in which the floxed Pten allele is deleted specifically in the keratinocytes by the K14-driven Cre recombinase. […]
K14-cre-Pten f/f mice were treated daily with 25 mg/kg 4-(trifluoromethyl)-5-(2,6-dimorpholinopyrimidin-4-yl)pyridin-2-amine by oral gavage beginning at 3 weeks of age and the development of PHTS symptoms monitored. […]

[2] = tested on: PHTS symptoms in K14-cre-Pten f/f mice; assay: Administration to K14-cre-Pten f/f mice with fully developed PHTS: relief of symptoms; type: in vivo
Method: as §1
Pten f/f mice (Lesche, R., et al., Cre/loxP-mediated inactivation of the murine Pten tumor suppressor gene. Genesis, 2002. 32(2): 148-9) were crossed with K14-cre mice (Jonkers, J., et al., Synergistic tumor suppressor activity of BRCA2 and p53 in a conditional mouse model for breast cancer. Nat Genet, 2001. 29(4): 418-25) to generate K14-Cre Pten f/f mice in which the floxed Pten allele is deleted specifically in the keratinocytes by the K14-driven Cre recombinase. These mice were further crossed with p110a f/f (Zhao, J. J., et al., The p110 alpha isoform of PI3K is essential for proper growth factor signaling and oncogenic transformation. Proc Natl Acad Sci USA, 2006. 103(44): 16296-300) and p110b f/f mice (Jia, S., et al., Essential roles of PI(3)K-p110beta in cell growth, metabolism and tumorigenesis. Nature, 2008) to generate K14-cre Pten f/f, K14-cre Pten f/f; p110a f/f, K14-cre Pten f/f; p110b f/f, and K14-cre-Pten f/f; p110a f/f; p110b f/f mice. Keratinocyte-specific deletion of Pten results in multiple dermal lesions in the K14-cre Ptenf/f mice that resemble multiple skin hamartomas of PHTS. […]

## Nc1cc(C(F)(F)F)c(-c2cc(N3CCOCC3)nc(N3CCOCC3)n2)cn1 [COMPOUND A, 4-(trifluoromethyl)-5-(2,6-dimorpholinopyrimidin-4-yl)pyridin-2-amine]
[1]; n=12
  development of PHTS symptoms (PHTS free survival): remained free of PHTS symptoms
[1]; n=12, listed as 4-(trifluoromethyl)-5-(2,6-dimorpholinopyrimidin-4-yl)pyridin-2-amine
  development of PHTS symptoms (PHTS free survival): remained free of PHTS symptoms; also recorded: entirely blocked appearance of PHTS
[2]; K14-cre-Pten f/f mice with fully developed PHTS (12-14 weeks of age), 45 mg/kg daily by oral gavage for 4 weeks, 45 mg/kg
  relief of PHTS symptoms: dramatically relieved the PHTS symptoms; also recorded: completely reversed the phenotype of PHST
[2]; K14-cre-Pten f/f mice with fully developed PHTS, 45 mg/kg daily by oral gavage, end of 4 weeks
  PHTS symptoms at the end of the 4-week treatment: substantially or completely reduced
